From US10696692B2, “Amido-benzyl sulfone and sulfoxide derivates” (Forma TM, LLC, priority 2012, dated 2020)
Read-outs that look alike come from different tables or passages of the source.

Legend:
[1] = target: NAMPT (Homo sapiens (Human), UniProt P43490); assay: Assay 1: Biochemical Inhibition Assay (NAMPT enzymatic reaction, NMN quantified by mass spectrometry); conditions: read-out: Biochemical (IC50);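 also: recombinant His-tagged human NAMPT preincubated with compound 15 min, then reacted 30 min at rt with 1 µM NAM, 100 µM PRPP, 2.5 mM ATP, NMN product read by RapidFire MS, normalized to L-Cystathionine internal standard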
[2] = test system: A2780 cells; assay: Assay 2: In-Vitro Cell Proliferation Assay (A2780 cells, SRB readout, 72 hours); assay type: cell-based; conditions: A2780 cells, 72 hours, SRB, read-out: Cell Proliferation (IC50);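 also: viable cells counted via sulforhodamine B staining, absorbance at 570 nm, after 72 h exposure at 37 °C, DMSO 0.1% as control, media-only background subtracted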

Sequence of NAMPT (P43490 whole entry): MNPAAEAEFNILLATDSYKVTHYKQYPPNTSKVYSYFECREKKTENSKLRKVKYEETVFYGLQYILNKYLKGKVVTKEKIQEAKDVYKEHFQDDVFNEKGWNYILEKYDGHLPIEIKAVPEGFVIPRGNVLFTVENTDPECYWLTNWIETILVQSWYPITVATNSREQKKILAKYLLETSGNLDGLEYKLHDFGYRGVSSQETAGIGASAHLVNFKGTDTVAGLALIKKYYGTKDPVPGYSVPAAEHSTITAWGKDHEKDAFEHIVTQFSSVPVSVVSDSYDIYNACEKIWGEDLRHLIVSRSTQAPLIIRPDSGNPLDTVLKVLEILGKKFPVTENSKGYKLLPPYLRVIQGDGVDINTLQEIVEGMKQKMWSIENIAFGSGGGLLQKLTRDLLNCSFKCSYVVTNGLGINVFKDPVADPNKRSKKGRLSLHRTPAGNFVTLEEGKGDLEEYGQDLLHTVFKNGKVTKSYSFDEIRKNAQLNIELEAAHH

| IC50 [1] | IC50 ([2]; Homo sapiens, A2780, 72 h) | IC50 [2] | Compound |
| --- | --- | --- | --- |
| 44.1 nM | 13.9 nM |  | O=C(NCc1ccc(S(=O)(=O)N2CCC(NCC(F)F)CC2)cc1)c1cnc2[nH]ncc2c1 [Example 37, 1H-Pyrazolo[3,4-b]pyridine-5-carboxylic acid 4-[4-(2,2-difluoro-ethylamino)-piperidine-1-sulfonyl]-benzylamide] |
| 26.5 nM | 62.1 nM |  | O=C(NCc1ccc(S(=O)(=O)N2CCC(O)CC2)cc1)c1cc2ccncc2o1 [Example 38, Furo[2,3-c]pyridine-2-carboxylic acid 4-(4-hydroxy-piperidine-1-sulfonyl)-benzylamide] |
| 83.5 nM | 94.7 nM |  | COCCNC1CCN(S(=O)(=O)c2ccc(CNC(=O)c3cnc4[nH]ncc4c3)cc2)CC1 [Example 39, 1H-Pyrazolo[3,4-b]pyridine-5-carboxylic acid 4-[4-(2-methoxy-ethylamino)-piperidine-1-sulfonyl]-benzylamide] |
| 17.1 nM | 6.9 nM |  | O=C(NCc1ccc(S(=O)(=O)N2CCN(C3CCCCC3)CC2)cc1)c1ccc2nccn2c1 [Example 40, Imidazo[1,2-a]pyridine-6-carboxylic acid 4-(4-cyclohexyl-piperazine-1-sulfonyl)-benzylamide] |
| 21.6 nM | 7.2 nM |  | CC(C)CN1CCN(S(=O)(=O)c2ccc(CNC(=O)c3ccc4nccn4c3)cc2)CC1 [Example 43, Imidazo[1,2-a]pyridine-6-carboxylic acid 4-(4-isobutyl-piperazine-1-sulfonyl)-benzylamide] |
| 17.2 nM | 1000 nM |  | O=C(NCc1ccc(S(=O)(=O)N2CCCCC2)cc1)c1ccc2ncnn2c1 [Example 45, [1,2,4]Triazolo[1,5-a]pyridine-6-carboxylic acid 4-(piperidine-1-sulfonyl)-benzylamide] |
| 43.5 nM | 4.4 nM |  | C[C@@H]1CN(S(=O)(=O)c2ccc(CNC(=O)c3cc4ccncc4s3)cc2)C[C@H](C)N1 [Example 46, Thieno[2,3-c]pyridine-2-carboxylic acid 4-((3R,5S)-3,5-dimethyl-piperazine-1-sulfonyl)-benzylamide] |
| 46.1 nM | 2000 nM |  | O=C(NCc1ccc(S(=O)(=O)N2CCCCC2)cc1)c1ccn2nccc2c1 [Example 48, Pyrazolo[1,5-a]pyridine-5-carboxylic acid 4-(piperidine-1-sulfonyl)-benzylamide] |
| 36.2 nM | 23.9 nM |  | O=C(NCc1ccc(S(=O)(=O)N2CCC[C@@H](O)C2)cc1)c1cc2cnccc2[nH]1 [Example 50, 1H-Pyrrolo[3,2-c]pyridine-2-carboxylic acid 4-((R)-3-hydroxy-piperidine-1-sulfonyl)-benzylamide] |
| 22.2 nM |  | 39.7 nM | O=C(NCc1ccc(S(=O)(=O)N2CCC[C@H](O)C2)cc1)c1cc2ccncc2o1 [Example 51, Furo[2,3-c]pyridine-2-carboxylic acid 4-((S)-3-hydroxy-piperidine-1-sulfonyl)-benzylamide] |
| 27.6 nM | 18.6 nM |  | O=C(NCc1ccc(S(=O)(=O)N2CCC[C@H](O)C2)cc1)c1cc2cnccc2[nH]1 [Example 52, 1H-Pyrrolo[3,2-c]pyridine-2-carboxylic acid 4-((S)-3-hydroxy-piperidine-1-sulfonyl)-benzylamide] |
| 16.9 nM | 22.6 nM |  | O=C(NCc1ccc(S(=O)(=O)N2CCC[C@@H](O)C2)cc1)c1ccc2nccn2c1 [Example 53, Imidazo[1,2-a]pyridine-6-carboxylic acid 4-((R)-3-hydroxy-piperidine-1-sulfonyl)-benzylamide] |

| Compound | IC50 [1] | IC50 ([2]; Homo sapiens, A2780, 72 h) | IC50 [2] |
| --- | --- | --- | --- |
| N[C@H]1C[C@H]2CC[C@@H](C1)N2S(=O)(=O)c1ccc(CNC(=O)c2cc3ccncc3s2)cc1 [Example 44, Thieno[2,3-c]pyridine-2-carboxylic acid 4-((1R,3R,5S)-3-amino-8-aza-bicyclo[3.2.1]octane-8-sulfonyl)-benzylamide] | 5.8 nM | 23.2 nM |  |
